Reference: US12527833B2, “Pharmaceutical composition made from hydrophobic phytochemicals dispersed in sesame oil to enhance bioactivity” (ARJUNA NATURAL PVT. LTD., priority 2017, dated 2026)

How the values were obtained:
[1] = tested on: Carrageenan induced paw edema; experiment: Carrageenan paw edema in rats: Boswellia dispersion at different SSA values (Example 9); format: in vivo
Description: The animals were housed in polypropylene cages and maintained under standard animal house conditions (12:12 hour light/dark cycle at 24±2° C. and 45-65% relative humidity). The rats had free access to standard pellet diet and water. 15 rats were divided into 5 groups comprising of 3 rats in each group. The rats were deprived of food, but had free access to drinking water for 12 h prior to the experiment. The treatment was as follows: After 12 hour fasting, baseline paw volume was recorded for each rat using digital plethysmometer (Ugo Basile, […]). Carrageenan (0.1 ml of 1%) in saline (0.9% NaCl) was injected into the plantar surface of the right hind paw of the animals. The experimental groups were given the designated extract/standard orally, 30 minutes prior to the injection of the carrageenan. After injection of carrageenan, paw volume was recorded at 3 hr to 6 hr post carrageenan. The edema was expressed as an increase in the volume of paw from baseline value, and the percentage of inhibition for each rat was calculated. • Group 1: 50 mg/Kg BS-1 (SSA 200-500 m^2/kg). • Group 2: 50 mg/Kg, BS-2 (SSA 700-1000 m^2/kg) • Group 3: 50 mg/Kg BS-3 (SSA 1100-1200 m^2/kg) • Group 4: 50 mg/Kg BS-4 (SSA>1300 m^2/kg) • Group 5: 10 mg/Kg Diclofenac.

[2] = tested on: Carrageenan induced paw edema; experiment: Carrageenan paw edema in rats: different ratios of Boswellia and sesame oil (Example 10); format: in vivo
Description: The animals were housed in polypropylene cages and maintained under standard animal house conditions (12:12 hour light/dark cycle at 24±2° C. and 45-65% relative humidity). The rats had free access to standard pellet diet and water. 27 rats were divided into 9 groups comprising of 3 rats in each group. The rats were deprived of food, but had free access to drinking water for 12 h prior to the experiment. The treatment was as follows: After 12 hour fasting, baseline paw volume was recorded for each rat using digital plethysmometer (Ugo Basile, […]). Carrageenan (0.1 ml of 1%) in saline (0.9% NaCl) was injected into the plantar surface of the right hind paw of the animals. The experimental groups were given the designated extract/standard orally, 30 minutes prior to the injection of the carrageenan. After injection of carrageenan, paw volume was recorded at 3 hr to 6 hr post carrageenan. The edema was expressed as an increase in the volume of paw from baseline value, and the percentage of inhibition for each rat was calculated. Different compositions of sesame oil with boswellia was tested to find out the optimum ratio with enhanced activity. Each composition of boswellia has undergone a regress milling and grinding resulting in SSA of greater than 1.2×10^3 m^2/kg. • Group 1: 50 mg/Kg AKBA10+Sesame oil (2:3). • Group 2: 50 mg/Kg, AKBA10+Sesame oil (5:7) • Group 3: 50 mg/Kg AKBA10+Sesame oil (9:11) • Group 4: 50 mg/Kg AKBA10+Sesame oil (1:3) • Group 5: 50 mg/Kg AKBA10+Sesame oil (1:5) • Group 6: 50 mg/Kg AKBA10+Sesame oil (1:9) • Group 7: 50 mg/Kg AKBA10+Sesame oil (1:1) • Group 8: 50 mg/Kg AKBA10+Sesame oil • Group 9: 10 mg/Kg Diclofenac

## O=C(O)Cc1ccccc1Nc1c(Cl)cccc1Cl [Diclofenac]
[1]; 3 hr post carrageenan, oral, BS samples 50 mg/kg, Diclofenac 10 mg/kg
  Percentage inhibition (%) 3HR: 68%
[1]; 6 hr post carrageenan, oral, BS samples 50 mg/kg, Diclofenac 10 mg/kg
  Percentage inhibition (%) 6HR: 94%
[1]; average of 3HR and 6HR
  Avrage percentage inhibition: 81%
[2]; 3 hr post carrageenan, oral, AKBA10+sesame oil 50 mg/Kg, SSA >1.2×10^3 m^2/kg, Diclofenac 10 mg/kg
  Percentage inhibition (%) 3HR: 66%
[2]; 6 hr post carrageenan, oral, AKBA10+sesame oil 50 mg/Kg, Diclofenac 10 mg/kg
  Percentage inhibition (%) 6HR: 98%
[2]; average of 3HR and 6HR
  Average percentage inhibition: 82%
